From PubChem BioAssay AID850 (SRMLSC, 2007)
The source made the active and inactive calls. The rule behind the calls is not given here.

Key:
[1] = yeast lifespan-shortening chemical project counter-assay, dose-response inhibition of growth under permissive conditions (AID 850); conditions: Saccharomyces cerevisiae growth inhibition, permissive control, measured here: maximum growth inhibition, stronger effect = higher value;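 note: growth read as optical density after one day of incubation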
[2] = tested on: Saccharomyces cerevisiae growth inhibition, permissive control; test: as above

Structure (SMILES)	IC50 [2]	inhibition ([1]; at 50 µM) [%]	also measured
CC(=O)NC(CCS(C)(=O)=O)C(=O)Nc1ccc2c(c1)OCO2 (stereo not drawn)	> 100 µM (inactive)		inhibition ([1]; at 1.563 µM): -0.58%
Cc1cc(O)c(/C=N/Nc2ccccc2Cl)c(=O)o1	22.3 µM	95.1	
CCN1/C(=C/c2ccc3cccc(C)c3[n+]2CC)Sc2ccccc21	8.03 µM	99.4	
CCOC(=O)c1c(NC(=O)C(C)Sc2cccc[n+]2[O-])sc2c1CCN(Cc1ccccc1)C2 (stereo not drawn)	16.3 µM	98.6	
NC(=O)c1sc2nc(-c3ccco3)ccc2c1N	> 100 µM (inactive)		inhibition ([1]; at 1.563 µM): 8.46%
CNC(=S)N/N=C(\C)c1ccc(N2CCOCC2)cc1	> 100 µM (inactive)		inhibition ([1]; at 0.195 µM): 9.86%
Cc1nc2ccccc2c2nc3ccccc3n12	38.5 µM	63.9	
CC(Sc1cccc[n+]1[O-])C(=O)Nc1cccc(S(=O)(=O)N2CCOCC2)c1 (stereo not drawn)	8.22 µM	99.8	
Cc1cc(N2CCN(c3cccc(C)c3C)CC2)nc(-c2ccccc2)n1	37.3 µM	93	
Cc1ccc(O)c(-c2cc(-c3ccccc3C)[nH]n2)c1	44.7 µM	56.5	
CNC(=O)c1cc2c(ccc3ccccc32)oc1=N	23.5 µM	74.8	
c1ccc(Cc2nnc3sc(-c4ccc5c(c4)OCCO5)nn23)cc1	> 100 µM (inactive)		inhibition ([1]; at 1.563 µM): 14.5%
CC(=O)N1c2ccccc2C2(O)N=C(C)SC12 (stereo not drawn)	> 100 µM (inactive)	16	
O=C1ON=C(c2ccccc2)/C1=C/c1ccc(OS(=O)(=O)c2ccccc2)cc1	> 100 µM (inactive)	11.6	
O=C(N/N=C\c1cccc([N+](=O)[O-])c1O)C1COc2ccccc2O1 (stereo not drawn)	22 µM	74.8	
CCC(=O)c1c(O)n(C2CCCCCC2)c(=O)[nH]c1=O	29 µM	91	
Nc1[nH]c(=O)ncc1F	17.5 µM	84.8	
O=C1c2ccccc2NC(c2ccc(-c3cccc(Cl)c3)o2)N1O (stereo not drawn)	47.1 µM	52.3	
O=C(O)c1ccc2c3c(ncnc13)-c1ccccc1C2=O	5.54 µM	98.6	
CC(C)(C)c1cc(NCCCn2ccnc2)n2ncc(-c3ccc(Cl)cc3)c2n1	> 100 µM (inactive)		inhibition ([1]; at 12.5 µM): 1.41%
Cc1cc(O)c(/C=N/Nc2ccc(Cl)cc2)c(=O)o1	3.93 µM		inhibition ([1]; at 25 µM): 98.2%

Structure (SMILES)	IC50 [2]	inhibition ([1]; at 50 µM) [%]	also measured
O=C(c1ccc(Cl)cc1)c1c[nH]c(C(=O)C(Cl)(Cl)Cl)c1	47.4 µM	77.6	
COc1ccc(Nc2cnn(-c3nc4ccccc4s3)c(=O)c2Cl)cc1	44.2 µM	60.8	
CN1C(=O)/C(=N/OC(=O)c2ccccc2)c2ccccc21	46.3 µM	90.8	
O=C(CCc1ccccc1)NNC(=S)NC(=O)c1ccccc1	> 100 µM (inactive)		inhibition ([1]; at 12.5 µM): 22.5%
Clc1ccccc1N/N=C/c1ccc2c(c1)OCO2	24.4 µM	98	
Cn1c(-c2ccco2)nc2cc3ccccc3cc21	49.4 µM	52.4	
O=[N+]([O-])c1ccc(O)c(/C=N/Nc2ccccn2)c1	> 100 µM (inactive)		inhibition ([1]; at 0.781 µM): 16.1%
N=c1n(CCN2CCOCC2)c2ccccc2n1CC(=O)c1ccc(Cl)c(Cl)c1	35.4 µM	61.4	
CC1CCCCN1S(=O)(=O)c1coc(C(N)=O)c1 (stereo not drawn)	> 100 µM (inactive)		inhibition ([1]; at 3.125 µM): 3.72%
CN(C)c1ccc(/C=C/c2ccc3ccccc3[n+]2C)cc1	22.3 µM	85.8	
Oc1ccc(CN2CCCCC2)c2cccnc12	51.8 µM	37.4	
Clc1cc2nc3ccccn3c2cc1Cl	> 100 µM (inactive)	16	
CC(C)(C)n1nc(-c2ccc(F)cc2)c2c(N)ncnc21	< 0.098 µM		inhibition ([1]; at 25 µM): 86.7%
CC(NC(=O)Nc1ccc(Cl)cc1)C(c1cccs1)N1CCOCC1 (stereo not drawn)	> 100 µM (inactive)		inhibition ([1]; at 0.781 µM): 8.7%
c1ccc(-n2c(-c3ccco3)nnc2-c2ccco2)cc1	> 100 µM (inactive)		inhibition ([1]; at 12.5 µM): 22.7%
c1ccc(-c2nc3c(ccc4ccccc43)[nH]2)nc1	36.8 µM	80.8	
CCC(=C(c1ccc(OC)cc1)c1ccc(OC)cc1)c1cn(CC(O)CN2CCN(C)CC2)c2ccccc12 (stereo not drawn)	33.9 µM	93.2	
C/C(=N\Nc1ccc([N+](=O)[O-])cc1)c1ccc(N)cc1	6.04 µM	94.4	
c1cnc2c(c1)ccc1cccnc12	8.23 µM	100	
Cn1c2ccccc2c2cc(C(=O)O)ccc21	> 100 µM (inactive)	23.6	
Cc1cccnc1Nc1nc(-c2ccccn2)cs1	37.9 µM	94.5	

Structure (SMILES)	IC50 [2]	inhibition ([1]; at 50 µM) [%]	also measured
Oc1ccc(N=Nc2cccc(Cl)c2)cc1C=Nc1ccc(N2CCOCC2)cc1	> 100 µM (inactive)		inhibition ([1]; at 12.5 µM): 2.01%
O=C1C=C(c2ccc(Cl)cc2)C(=O)N1Nc1ccccc1	6.75 µM	99.4	
O=C1C=C(c2ccccc2)C(=O)N1Nc1ccccc1	23.6 µM	85.8	
Cn1cccc1C(=O)NC(=O)CSc1cccc[n+]1[O-]	24.3 µM	97.5	
CCOC(=O)c1c(/N=C/c2cc([N+](=O)[O-])ccc2O)sc(C)c1C	39.9 µM		inhibition ([1]; at 25 µM): 52.7%
O=C(CSCc1ccco1)Nc1cc(C(F)(F)F)ccc1N1CCOCC1	> 100 µM (inactive)		inhibition ([1]; at 0.781 µM): 16.7%
Cc1cc(O)c(/C=N/Nc2cccc(Cl)c2)c(=O)o1	26.7 µM	80.8	
S=C(NCc1ccc(Cl)cc1)NC12CC3CC(CC(C3)C1)C2	> 100 µM (inactive)		inhibition ([1]; at 0.195 µM): 14.1%
Cc1ccc(NC(=O)CSC2=C(C#N)C(c3ccc4c(c3)OCO4)C3=C(CCCC3=O)N2)c(C)c1 (stereo not drawn)	> 100 µM (inactive)		inhibition ([1]; at 0.195 µM): 8.26%
CC(=O)NC1C(=O)N=C(SCC(=O)NC2CCCCC2)NC1=O (stereo not drawn)	> 100 µM (inactive)	20.3	
NC(N)=N/N=C/c1ccc(OCc2ccc(Cl)cc2)cc1	34.6 µM	81.6	
CC1=C(C)/C(=N\OS(=O)(=O)c2ccc(C)cc2)C=CC1=O	8.79 µM		inhibition ([1]; at 25 µM): 99.2%
CCSc1nnc(NC(=O)c2ccccn2)s1	12.7 µM	97.8	
N/C(Cc1ccc(Cl)cc1Cl)=N\OC(=O)c1cccs1	0.925 µM		inhibition ([1]; at 12.5 µM): 100%
Cc1cc(/C=N/n2cnnc2)c(C)n1-c1ccc(OCc2ccc(Cl)cc2Cl)cc1	> 100 µM (inactive)		inhibition ([1]; at 25 µM): 25.7%
CCCCCCCCCCCCCCCC[n+]1ccc(/C=N/O)cc1	1.07 µM	100	
CCCCn1c(/N=C/c2c[nH]c3ccccc23)nc2ccccc21	> 100 µM (inactive)		inhibition ([1]; at 0.781 µM): 7.75%
CN1C(=O)C(O)(CC(=O)c2ccccc2O)c2cc(Br)ccc21 (stereo not drawn)	> 100 µM (inactive)		inhibition ([1]; at 0.195 µM): 17.2%
Clc1cccc(CN2COc3c(cc(Cl)c4cccnc34)C2)c1	6.88 µM	101	
COc1ccccc1-c1nnc(NC(=O)C(C)SC2=NCCS2)s1 (stereo not drawn)	> 100 µM (inactive)		inhibition ([1]; at 12.5 µM): 16.8%
Cc1cc(C(=O)COC(=O)c2ccc[nH]c2=O)c(C)n1-c1ccc(F)cc1	> 100 µM (inactive)	12.8	

Structure (SMILES)	IC50 [2]	inhibition ([1]; at 50 µM) [%]	also measured
Cc1ccc(/C=C/C(=O)c2ccccc(=O)c2O)c(C)c1	6.08 µM		inhibition ([1]; at 25 µM): 101%
OC(CN1CCN(c2ccccn2)CC1)Cn1c2ccc(Cl)cc2c2cc(Cl)ccc21 (stereo not drawn)	30.9 µM	98.9	
Oc1ccc2ccccc2c1N=Nc1ccccn1	25 µM	97.5	
C=CCn1cnc2c(c1=O)c1nc3ccccc3nc1n2/N=C/c1cc(OC)c(OC)c(OC)c1	25.8 µM		inhibition ([1]; at 25 µM): 46.7%
c1ccc(-c2nc3nonc3nc2-c2ccccc2)cc1	> 100 µM (inactive)		inhibition ([1]; at 1.563 µM): -1.92%
CCCc1cc(C(=O)Cc2ccc(F)cc2)c(O)cc1O	26.9 µM	80.4	
CCc1ccc2c(c1)C1(NN=C(c3ccc(C)cc3)S1)C(=O)N2 (stereo not drawn)	21.3 µM	98	
O=C1OCC(CO)(CO)N=C1NNc1ccccc1Cl	3.49 µM		inhibition ([1]; at 25 µM): 98.4%
Cc1cc(C)nc(/N=c2/ssnc2Cl)c1	> 100 µM (inactive)		inhibition ([1]; at 6.25 µM): 29.2%
Cc1cccc(N=C2Sc3nc4c(C)c(C)ccc4cc3CN2CCN2CCOCC2)c1	45.1 µM	99	
CCCCCCCCCCCCCCCC(O)C(N)CO (stereo not drawn)	24.8 µM	99.2	
CCOC(=O)/C(=N\Nc1ccccc1Cl)N1CCN(Cc2ccccc2)CC1	26.8 µM	73.9	
O=[N+]([O-])c1ccc(Sc2nc3ccccc3o2)c([N+](=O)[O-])c1	50.1 µM	48.3	
C(=C\c1nc(N2CCCCCC2)c2ccccc2n1)/c1ccccc1	39.2 µM	78.2	
O=C(OCn1ncc(Cl)c(Cl)c1=O)c1cccc(C(F)(F)F)c1	> 100 µM (inactive)	12.7	
O=C(O)CSc1nc(-c2ccc(Cl)cc2)nc2c1oc1ccccc12	32.1 µM	86.6	
O=C1c2cccc3cccc(c23)C(=O)N1c1cccnc1	> 100 µM (inactive)	27.9	
NNC(=O)c1ccc(COc2ccc3c(c2)CCC3)o1	15.5 µM	95.3	
O=C(CC(=O)c1cc(Cl)ccc1O)c1ccccc1	> 100 µM (inactive)		inhibition ([1]; at 12.5 µM): 24.9%
CC1(C)CC(=NOC(=O)c2ccccc2)CC(C)(C)N1O	14 µM	98.6	
Cc1ccc(NC(=S)Nc2ccc(Cl)c(Cl)c2)c(OC(F)F)c1	24.8 µM	76	
